Results reported in patent publication US9012431B2, “Boron-containing small molecules as anti-inflammatory agents” (Anacor Pharmaceuticals, Inc., priority 2008, dated 2015).
Like-named read-outs stand apart in the source and are kept apart here.

Legend:
TNF-α = assay: Cytokine assay, TNF-α release from PBMC; type: cell-based; conditions: Homo sapiens, PBMC, 24 h, 1 μg/mL LPS, supernatant at 24 hours
Procedure, shortened: (§1)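 Using previously frozen human PBMC resuspended in medium of RPMI 1640 supplemented with 10% FBS, test article at 10, 1, 0.1 and 0.01 μM was evaluated in triplicate; DMSO stock was 10 mM.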

IL-2 = assay: Cytokine assay, IL-2 release from PBMC; type: cell-based; conditions: human PBMC, 20 ug/mL PHA, supernatant at 24 hours
Procedure, shortened: as §1

IL-5 = assay: Cytokine assay, IL-5 release from PBMC; type: cell-based; conditions: human PBMC, 20 ug/mL PHA, supernatant at 48 hours
Procedure, shortened: as §1

IL-10 = assay: Cytokine assay, IL-10 release from PBMC; type: cell-based; conditions: human PBMC, 20 ug/mL PHA, supernatant at 48 hours
Procedure, shortened: as §1

[1] = system: T1, PDE4 partially purified from human U-937 myeloid leukemia cells; assay: PDE4 Assay (enzyme from U-937 cells, [3H]cAMP); type: biochemical; conditions: PDE4 from U-937 cells, Tris buffer pH 7.5, 20 minutes at 25° C.
T1 construct: PDE4 partially purified from human U-937 myeloid leukemia cells was used

[2] = system: CD-1 (Crl.) derived male mice; assay: Phorbol Ester Induced Mouse Ear Edema Model; type: in vivo; conditions: topical, 6 h, 1 mg/ear × 2 topical, vehicle not given, ear swelling 6 hours after PMA
Procedure, shortened: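 Test compounds in acetone:ethanol 1:1 were applied topically to both ears 30 min before and 15 min after PMA challenge; dexamethasone positive control followed the same schedule. Ear thickness was measured by micrometer 6 h after PMA, and percent inhibition was calculated from ear-thickness increase versus vehicle controls.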

hERG-channel = hERG-channel (Homo sapiens, UniProt Q12809); assay: hERG-channel block; type: biochemical; conditions: C17 at 1 μM
female CBA/J mice = assay: Local lymph node assay (hypersensitivity response); type: in vivo
[3] = system: TNF-α secretion from peripheral blood mononuclear cells (PBMCs); assay: TNF-α secretion from PBMCs stimulated by LPS; type: cell-based, human; conditions: PBMC
Excerpt: (§2) Compounds were screened by a biochemical assay against PDE4 enzyme and cell-based cytokine release assays using PBMCs stimulated by LPS or phytohemagglutinin (PHA).

[4] = system: IL-6 production by human PBMCs; assay: IL-6 production by LPS- or PHA-stimulated PBMCs; type: cell-based
[5] = system: IL-2 secretion from PBMCs; assay: IL-2 secretion from PBMCs stimulated with PHA; type: cell-based, human; conditions: PBMC
Excerpt: as §2

[6] = system: IL-5 production by human PBMCs; assay: IL-5 production by LPS- or PHA-stimulated PBMCs; type: cell-based
[7] = system: phosphodiesterase 4 (PDE4) enzyme derived from human U937 cells; assay: PDE4 enzyme activity (enzyme derived from human U937 cells); type: biochemical; conditions: versus substrate cAMP
Excerpt: (§3) The structure-activity relationships of novel boron-containing anti-inflammatory agents was investigated.
as §2

[8] = system: T2, phosphodiesterase 4 (PDE4) enzyme derived from human U937 cells; assay: as above; type: biochemical
T2 construct: PDE4 IC50; other: biochemical assay, PDE4 enzyme derived from human U937 cells; other: PDE4 in human U937 cells
Excerpt: as §3, §2

all four PDE4 isoforms = assay: PDE4 isoform inhibition; type: biochemical
PDE7A1 = target: T3, PDE7A1 (Homo sapiens, UniProt Q13946); assay: PDE7 inhibition; type: biochemical
T3 construct: made in house; host or cells: baculoviral expression system

PDE1A3 = target: T4, PDE1A3 (Homo sapiens, UniProt P54750); assay: PDE1 inhibition; type: biochemical
T4 construct: made in house; host or cells: baculoviral expression system

PDE2 = target: T5, PDE2 (Homo sapiens, UniProt O00408); assay: PDE2 inhibition; type: biochemical
T5 construct: made in house; host or cells: baculoviral expression system

PDE3 Cat = system: T6, PDE3 Cat; assay: PDE3 inhibition; type: biochemical
T6 construct: Recombinant human PDE enzymes were expressed in a baculoviral system.; PDE isoforms tested include

PDE5 = PDE5 (Homo sapiens, UniProt O76074); assay: PDE5 inhibition; type: biochemical
PDE4Cat = system: T7, PDE4Cat; assay: PDE4Cat inhibition; type: biochemical; conditions: standard: Rolipram
T7 construct: Recombinant human PDE enzymes were expressed in a baculoviral system.

[9] = system: TNF-α, IFN-γ, IL-1μ, IL-2, IL-4, IL-5, IL-6, IL-8, IL-10, IL-12, and IL-23; assay: Release of pro-inflammatory cytokines (summary statement); type: cell-based
Excerpt: (§4) This activity is explained in part by the inhibition of phosphodiesterase-4 (PDE-4).

MCP-1 and PGE2 = assay: Release of chemokine MCP-1 and PGE2; type: cell-based
Excerpt: as §4

Sprague-Dawley rats = conditions: oral 30, 100, and 300 mg/kg/day, 14 consecutive days

T3 sequence (Q13946 whole entry): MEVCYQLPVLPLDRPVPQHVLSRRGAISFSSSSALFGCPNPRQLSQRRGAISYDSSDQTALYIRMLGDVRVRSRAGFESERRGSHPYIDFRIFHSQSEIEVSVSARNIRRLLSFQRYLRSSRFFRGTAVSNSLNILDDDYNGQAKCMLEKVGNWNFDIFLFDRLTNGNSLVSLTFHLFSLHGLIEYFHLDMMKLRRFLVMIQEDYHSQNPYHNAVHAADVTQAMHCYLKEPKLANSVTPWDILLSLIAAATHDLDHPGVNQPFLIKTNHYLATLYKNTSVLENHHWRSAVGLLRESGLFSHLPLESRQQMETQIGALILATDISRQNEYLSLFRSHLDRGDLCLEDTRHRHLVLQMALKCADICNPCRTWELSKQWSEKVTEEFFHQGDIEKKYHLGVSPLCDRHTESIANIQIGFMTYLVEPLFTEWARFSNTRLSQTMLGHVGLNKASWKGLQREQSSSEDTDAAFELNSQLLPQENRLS
T4 sequence (P54750 whole entry): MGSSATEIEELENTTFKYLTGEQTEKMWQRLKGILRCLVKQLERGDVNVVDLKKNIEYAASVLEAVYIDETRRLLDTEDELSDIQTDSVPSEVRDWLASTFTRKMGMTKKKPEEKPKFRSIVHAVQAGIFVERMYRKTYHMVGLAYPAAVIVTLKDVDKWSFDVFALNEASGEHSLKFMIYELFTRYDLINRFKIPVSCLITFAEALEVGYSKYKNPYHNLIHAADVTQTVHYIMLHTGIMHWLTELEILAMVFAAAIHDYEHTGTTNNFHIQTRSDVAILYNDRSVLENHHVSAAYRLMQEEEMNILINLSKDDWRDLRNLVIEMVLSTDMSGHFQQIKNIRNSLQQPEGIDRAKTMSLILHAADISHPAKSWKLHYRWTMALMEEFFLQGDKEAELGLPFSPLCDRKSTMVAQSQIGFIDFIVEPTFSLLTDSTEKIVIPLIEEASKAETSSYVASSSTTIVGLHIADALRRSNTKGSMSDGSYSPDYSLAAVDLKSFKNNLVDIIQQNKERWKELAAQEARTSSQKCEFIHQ
T5 sequence (O00408 whole entry): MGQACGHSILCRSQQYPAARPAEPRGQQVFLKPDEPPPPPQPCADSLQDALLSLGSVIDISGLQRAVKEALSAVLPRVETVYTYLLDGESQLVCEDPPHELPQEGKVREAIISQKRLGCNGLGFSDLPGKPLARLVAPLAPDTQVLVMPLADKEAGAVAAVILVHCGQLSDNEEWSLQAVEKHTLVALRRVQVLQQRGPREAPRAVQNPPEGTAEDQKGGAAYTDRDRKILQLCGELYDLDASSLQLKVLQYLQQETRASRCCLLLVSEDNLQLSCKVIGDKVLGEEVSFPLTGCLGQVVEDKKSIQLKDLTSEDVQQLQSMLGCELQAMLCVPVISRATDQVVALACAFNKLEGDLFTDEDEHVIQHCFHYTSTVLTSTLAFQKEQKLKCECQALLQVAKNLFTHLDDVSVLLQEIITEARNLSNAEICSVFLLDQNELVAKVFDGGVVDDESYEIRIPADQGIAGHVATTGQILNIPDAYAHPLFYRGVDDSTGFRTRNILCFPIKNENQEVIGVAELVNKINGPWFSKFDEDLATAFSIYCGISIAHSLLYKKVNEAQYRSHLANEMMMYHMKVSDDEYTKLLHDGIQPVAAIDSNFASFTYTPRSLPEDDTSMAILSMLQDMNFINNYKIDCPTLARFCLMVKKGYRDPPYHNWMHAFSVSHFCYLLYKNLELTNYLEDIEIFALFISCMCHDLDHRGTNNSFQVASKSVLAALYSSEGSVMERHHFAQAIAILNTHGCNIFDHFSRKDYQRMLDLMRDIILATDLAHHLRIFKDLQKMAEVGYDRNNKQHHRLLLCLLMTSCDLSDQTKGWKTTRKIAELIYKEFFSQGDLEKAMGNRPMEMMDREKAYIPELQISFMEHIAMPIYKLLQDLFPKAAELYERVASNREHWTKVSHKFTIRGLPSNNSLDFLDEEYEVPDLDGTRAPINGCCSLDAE
hERG-channel, sequence (Q12809 whole entry): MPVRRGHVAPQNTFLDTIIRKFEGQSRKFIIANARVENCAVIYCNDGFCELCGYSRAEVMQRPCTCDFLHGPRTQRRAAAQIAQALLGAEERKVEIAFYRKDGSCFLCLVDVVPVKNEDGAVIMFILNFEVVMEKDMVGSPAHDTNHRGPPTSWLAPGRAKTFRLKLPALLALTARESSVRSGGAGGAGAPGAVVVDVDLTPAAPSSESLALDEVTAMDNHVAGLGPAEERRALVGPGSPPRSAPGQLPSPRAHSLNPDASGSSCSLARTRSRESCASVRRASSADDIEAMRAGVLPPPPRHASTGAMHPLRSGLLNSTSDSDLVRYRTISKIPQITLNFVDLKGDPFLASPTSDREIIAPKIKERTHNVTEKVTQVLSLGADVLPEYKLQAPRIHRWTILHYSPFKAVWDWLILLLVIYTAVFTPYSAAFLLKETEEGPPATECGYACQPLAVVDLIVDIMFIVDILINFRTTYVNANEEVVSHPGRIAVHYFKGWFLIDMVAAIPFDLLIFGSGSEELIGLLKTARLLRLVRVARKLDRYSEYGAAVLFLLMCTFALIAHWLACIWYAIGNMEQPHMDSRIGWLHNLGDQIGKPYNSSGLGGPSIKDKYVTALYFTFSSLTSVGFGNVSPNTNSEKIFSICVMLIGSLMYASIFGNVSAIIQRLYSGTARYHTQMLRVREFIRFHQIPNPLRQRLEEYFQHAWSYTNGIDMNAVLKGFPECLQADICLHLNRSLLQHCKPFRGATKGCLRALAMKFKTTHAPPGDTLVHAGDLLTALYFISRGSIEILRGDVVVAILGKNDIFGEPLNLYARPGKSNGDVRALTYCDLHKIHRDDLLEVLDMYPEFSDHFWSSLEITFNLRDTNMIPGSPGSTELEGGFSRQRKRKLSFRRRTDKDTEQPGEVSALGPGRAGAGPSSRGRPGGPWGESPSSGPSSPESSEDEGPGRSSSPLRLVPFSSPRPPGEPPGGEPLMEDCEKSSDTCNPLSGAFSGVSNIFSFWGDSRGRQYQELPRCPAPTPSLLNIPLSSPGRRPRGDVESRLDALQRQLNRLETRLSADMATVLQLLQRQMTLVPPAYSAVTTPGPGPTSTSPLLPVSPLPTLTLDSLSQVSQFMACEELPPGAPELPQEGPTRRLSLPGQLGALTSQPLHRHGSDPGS

In the case of `N#Cc1ccc(Oc2ccc3c(c2)COB3O)cc1` [C17, 5-(4-cyanophenoxy)-1-hydroxy-1,3-dihydro-2,1-benzoxaborole], the IC50 (TNF-α) is reported as less than 1000 nM, the IC50 (IL-2) is reported as less than 1000 nM and the IC50 (IL-5) is reported as 1000 to 4000 nM. The IC50 (IL-10) was 4000 to 10000 nM, the IC50 [1] was less than 1000 nM and the inhibition in vivo at 1 mg [2] was 60 to 90%. For the same compound, the hERG-channel blocker classification (hERG-channel) was “low potency hERG-channel blocker”, the skin sensitizing activity (female CBA/J mice; mouse, in vivo) was “not considered to have skin sensitizing activity” and the stimulation index (female CBA/J mice; topical 1%, 5%, and 10% solution in acetone/ethanol (50:50, v/v)) was less than 3. The IC50 ([3]; Homo sapiens, PBMCs stimulated by LPS, read-out: TNF-α secretion IC50) was 770 nM, the IC50 ([3]; LPS- and PHA-induced cytokine production by human PBMCs, read-out: IC50 TNFα (pro-inflammatory cytokines)) was less than 1000 nM and the IC50 ([4]; PBMC, LPS- and PHA-induced cytokine production by human PBMCs, read-out: IC50 IL-6 (pro-inflammatory cytokines)) was greater than 30000 nM. The “effect on IL-6” value ([4]; PBMCs) was “not affected”, the IC50 ([5]; Homo sapiens, PBMCs stimulated with PHA, read-out: IL-2 secretion IC50) was 460 nM and the IC50 ([5]; LPS- and PHA-induced cytokine production by human PBMCs, read-out: IC50 IL-2 (Th1 cytokines)) was less than 1000 nM. The IC50 ([6]; PBMC, LPS- and PHA-induced cytokine production by human PBMCs, read-out: IC50 IL-5 (Th2 cytokines)) was 1000 to 10000 nM, the “IL-5 inhibition, range in words” value ([6]; PBMCs) was “low micromolar range” and the “mode of inhibition (enzyme kinetic analysis)” value [7] was “competitive inhibitor”. For the same compound, the IC50 ([8]; PDE4 in human U937 cells, read-out: PDE4 enzyme activity IC50) was 490 nM, the IC50 ([8]; biochemical assay, PDE4 enzyme derived from human U937 cells, read-out: PDE4 IC50) was 490 nM and the “inhibition of PDE4 isoforms” value (all four PDE4 isoforms) was “inhibiting all four PDE4 isoforms equally”. The IC50 (PDE7A1; read-out: PDE7 IC50) was 730 nM, the IC50 (PDE7A1; standard: BRL-50481, read-out: IC50 PDE7A1) was less than 1000 nM and the “inhibition of PDE1” value (PDE1A3) was “does not significantly inhibit”. For the same compound, the IC50 (PDE1A3; standard: 8-methoxymethyl-IBMX) was 1000 to 10000 nM, the “inhibition of PDE2” value (PDE2) was “does not significantly inhibit” and the “inhibition of PDE3” value (PDE3 Cat) was “does not significantly inhibit”. For the same compound, the IC50 (PDE3 Cat; standard: Cilostazol) was 1000 to 10000 nM, the “inhibition of PDE5” value (PDE5) was “does not significantly inhibit” and the IC50 (PDE4Cat) was less than 1000 nM. For the same compound, the “release of pro-inflammatory cytokines including TNF-α, IFN-γ, IL-1μ, IL-2, IL-4, IL-5, IL-6, IL-8, IL-10, IL-12, and IL-23” value [9] was “inhibition of the release”, the “release of the chemokine MCP-1 and PGE2” value (MCP-1 and PGE2) was “inhibits the release” and the “mortality, clinical pathology, microscopic or macroscopic changes” value (Sprague-Dawley rats) was “No mortality, adverse effects on clinical pathology, or microscopic or macroscopic changes were observed in any dose group”.
